Experimental data taken from US6737383B1, “Herbicidal oxadiazolidines” (priority 1999, dated 2004).

Key:
sugar beet = assay: Test B pre/postemergence sugar beet; assay type: in vivo, Beta vulgaris
Method in brief: (§1)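 Test chemicals in a non-phytotoxic solvent mixture with surfactant were sprayed preemergence onto planted seeds and postemergence onto plants 2 to 18 cm tall (1- to 4-leaf stage). After twelve to sixteen days in a greenhouse, injury was visually rated against untreated controls from 0 (no effect) to 10 (complete control).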

wild oat = assay: Test B pre/postemergence wild oat; assay type: in vivo, Avena fatua
Method in brief: as §1

morningglory = assay: Test B pre/postemergence morningglory; assay type: in vivo, Ipomoea hederacea
Method in brief: as §1

corn = assay: Test B pre/postemergence corn; assay type: in vivo, Zea mays
Method in brief: as §1

blackgrass = assay: Test B pre/postemergence blackgrass; assay type: in vivo, Alopecurus myosuroides
Method in brief: as §1

bedstraw = assay: Test B pre/postemergence bedstraw; assay type: in vivo, Galium aparine; settings: for Bedstraw plant response rating: 10 is complete control
Method in brief: as §1

purple nutsedge = assay: Test B pre/postemergence purple nutsedge; assay type: in vivo, Cyperus rotundus
Method in brief: as §1

giant foxtail = assay: Test B pre/postemergence giant foxtail; assay type: in vivo, Setaria faberii
Method in brief: as §1

surinam grass = assay: Test B pre/postemergence surinam grass; assay type: in vivo, Brachiaria decumbens
Method in brief: as §1

velvetleaf = assay: Test B pre/postemergence velvetleaf; assay type: in vivo, Abutilon theophrasti
Method in brief: as §1

rape = assay: Test B pre/postemergence rape; assay type: in vivo, Brassica napus
Method in brief: as §1

pigweed = assay: Test B pre/postemergence pigweed; assay type: in vivo, Amaranthus retroflexus
Method in brief: as §1

soybean = assay: Test B pre/postemergence soybean; assay type: in vivo, Glycine max
Method in brief: as §1

crabgrass = assay: Test B pre/postemergence crabgrass; assay type: in vivo, Digitaria sanguinalis
Method in brief: as §1

cocklebur = assay: Test B pre/postemergence cocklebur; assay type: in vivo, Xanthium strumarium
Method in brief: as §1

wheat = assay: Test B pre/postemergence wheat; assay type: in vivo, Triticum aestivum
Method in brief: as §1

[1] = Postemergence, Rate 62 g/ha, scale of 0 to 10, 0 is no effect, 10 is complete control
[2] = Postemergence, Rate 125 g/ha, scale 0 to 10, 0 is no effect, 10 is complete control
[3] = Postemergence, Rate 500 g/ha, scale 0 to 10, 0 is no effect, 10 is complete control
[4] = Preemergence, Rate 62 g/ha, scale of 0 to 10 where 0 is no effect and 10 is complete control
[5] = Preemergence, Rate 125 g/ha, scale 0 to 10, 0 is no effect, 10 is complete control
[6] = Preemergence, Rate 500 g/ha, scale of 0 to 10 where 0 is no effect and 10 is complete control
[7] = Rate 250 g/ha, Postemergence, scale of 0 to 10 where 0 is no effect and 10 is complete control

CCC=CCn1c(=O)on(C(=O)N(c2ccc(F)cc2F)C(C)C)c1=O [Compound 523]
Sugarbeets plant response rating (sugar beet; [1]): 0
Sugarbeets plant response rating (sugar beet; [2]): 0
Plant response rating, Sugarbeets (sugar beet; [3]): 0
Plant response rating, Sugarbeets (sugar beet; [4]): 3
Sugarbeets plant response rating (sugar beet; [5]): 4
Sugarbeets plant response rating (0 to 10 scale) (sugar beet; Preemergence, Rate 250 g/ha): 7
Sugarbeets plant response rating (sugar beet; [6]): 9
Plant response rating, Sugarbeets (sugar beet; [7]): 0
Wild oats plant response rating (wild oat; [1]): 0
Wild oats plant response rating (wild oat; [2]): 0
Plant response rating, Wild oats (wild oat; [3]): 2
Plant response rating, Wild oats (wild oat; [4]): 0
Wild oats plant response rating (wild oat; [5]): 0
Wild oats plant response rating (0 to 10 scale) (wild oat; Preemergence, Rate 250 g/ha): 0
Wild oats plant response rating (wild oat; [6]): 0
Plant response rating, Wild oats (wild oat; [7]): 0
Morningglory plant response rating (morningglory; [1]): 2
Morningglory plant response rating (morningglory; [2]): 3
Plant response rating, Morningglory (morningglory; [3]): 4
Plant response rating, Morningglory (morningglory; [4]): 2
Morningglory plant response rating (morningglory; [5]): 4
Morningglory plant response rating (0 to 10 scale) (morningglory; Preemergence, Rate 250 g/ha): 0
Morningglory plant response rating (morningglory; [6]): 0
Plant response rating, Morningglory (morningglory; [7]): 4
Corn plant response rating (corn; [1]): 0
Corn plant response rating (corn; [2]): 0
Plant response rating, Corn (corn; [3]): 2
Plant response rating, Corn (corn; [4]): 0
Corn plant response rating (corn; [5]): 0
Corn plant response rating (0 to 10 scale) (corn; Preemergence, Rate 250 g/ha): 0
Corn plant response rating (corn; [6]): 9
Plant response rating, Corn (corn; [7]): 2
Blackgrass plant response rating (blackgrass; [1]): 0
Blackgrass plant response rating (blackgrass; [2]): 0
Plant response rating, Blackgrass (blackgrass; [3]): 4
Plant response rating, Blackgrass (blackgrass; [4]): 2
Blackgrass plant response rating (blackgrass; [5]): 4
Blackgrass plant response rating (0 to 10 scale) (blackgrass; Preemergence, Rate 250 g/ha): 7
Blackgrass plant response rating (blackgrass; [6]): 7
Plant response rating, Blackgrass (blackgrass; [7]): 3
Bedstraw plant response rating (bedstraw; Postemergence, Rate 62 g/ha, scale of 0 to 10, 0 is no effect): 0
Bedstraw plant response rating (bedstraw; Postemergence, Rate 125 g/ha, scale 0 to 10, 0 is no effect): 0
Plant response rating, Bedstraw (bedstraw; [4]): 0
Bedstraw plant response rating (bedstraw; Preemergence, Rate 125 g/ha, scale 0 to 10, 0 is no effect): 0
Bedstraw plant response rating (0 to 10 scale) (bedstraw; Preemergence, Rate 250 g/ha): 0
Bedstraw plant response rating (bedstraw; Preemergence, Rate 500 g/ha, scale 0 to 10, 0 is no effect): 0
Nutsedge plant response rating (purple nutsedge; [1]): 0
Nutsedge plant response rating (purple nutsedge; [2]): 0
Plant response rating, Nutsedge (purple nutsedge; [3]): 0
Plant response rating, Nutsedge (purple nutsedge; [4]): 0
Nutsedge plant response rating (purple nutsedge; [5]): 0
Nutsedge plant response rating (0 to 10 scale) (purple nutsedge; Preemergence, Rate 250 g/ha): 0
Nutsedge plant response rating (purple nutsedge; [6]): 0
Plant response rating, Nutsedge (purple nutsedge; [7]): 0
Giant foxtail plant response rating (giant foxtail; [1]): 2
Giant foxtail plant response rating (giant foxtail; [2]): 2
Plant response rating, Giant foxtail (giant foxtail; [3]): 6
Plant response rating, Giant foxtail (giant foxtail; [4]): 10
Giant foxtail plant response rating (giant foxtail; [5]): 10
Giant foxtail plant response rating (0 to 10 scale) (giant foxtail; Preemergence, Rate 250 g/ha): 10
Giant foxtail plant response rating (giant foxtail; [6]): 10
Plant response rating, Giant foxtail (giant foxtail; [7]): 4
B. signalgrass plant response rating (surinam grass; [1]): 0
B. signalgrass plant response rating (surinam grass; [2]): 0
Plant response rating, B. signalgrass (surinam grass; [3]): 7
Plant response rating, B. signalgrass (surinam grass; [4]): 4
B. signalgrass plant response rating (surinam grass; [5]): 8
B. signalgrass plant response rating (0 to 10 scale, 0 is no effect, 10 is complete control) (surinam grass; Preemergence, Rate 250 g/ha): 9
B. signalgrass plant response rating (surinam grass; Preemergence, Rate 500 g/ha, scale 0 to 10, 0 is no effect, 10 is complete control): 5
Plant response rating, B. signalgrass (surinam grass; [7]): 2
Velvetleaf plant response rating (velvetleaf; [1]): 0
Velvetleaf plant response rating (velvetleaf; [2]): 3
Plant response rating, Velvetleaf (velvetleaf; [3]): 4
Plant response rating, Velvetleaf (velvetleaf; [4]): 0
Velvetleaf plant response rating (velvetleaf; [5]): 2
Velvetleaf plant response rating (0 to 10 scale) (velvetleaf; Preemergence, Rate 250 g/ha): 2
Velvetleaf plant response rating (velvetleaf; [6]): 5
Plant response rating, Velvetleaf (velvetleaf; [7]): 3
Rape plant response rating (rape; [1]): 0
Rape plant response rating (rape; [2]): 0
Plant response rating, Rape (rape; [3]): 2
Plant response rating, Rape (rape; [4]): 0
Rape plant response rating (rape; [5]): 0
Rape plant response rating (0 to 10 scale) (rape; Preemergence, Rate 250 g/ha): 4
Rape plant response rating (rape; [6]): 7
Plant response rating, Rape (rape; [7]): 2
Redroot pigweed plant response rating (pigweed; [1]): 0
Redroot pigweed plant response rating (pigweed; [2]): 2
Plant response rating, Redroot pigweed (pigweed; [3]): 3
Plant response rating, Redroot pigweed (pigweed; [4]): 2
Redroot pigweed plant response rating (pigweed; [5]): 9
Redroot pigweed plant response rating (0 to 10 scale) (pigweed; Preemergence, Rate 250 g/ha): 9
Redroot pigweed plant response rating (pigweed; [6]): 9
Plant response rating, Redroot pigweed (pigweed; [7]): 3
Soybean plant response rating (soybean; [1]): 4
Soybean plant response rating (soybean; [2]): 5
Plant response rating, Soybean (soybean; [3]): 5
Plant response rating, Soybean (soybean; [4]): 0
Soybean plant response rating (soybean; [5]): 0
Soybean plant response rating (0 to 10 scale) (soybean; Preemergence, Rate 250 g/ha): 0
Soybean plant response rating (soybean; [6]): 0
Plant response rating, Soybean (soybean; [7]): 5
Crabgrass plant response rating (crabgrass; [1]): 3
Crabgrass plant response rating (crabgrass; [2]): 8
Plant response rating, Crabgrass (crabgrass; [3]): 10
Plant response rating, Crabgrass (crabgrass; [4]): 9
Crabgrass plant response rating (crabgrass; [5]): 10
Crabgrass plant response rating (0 to 10 scale) (crabgrass; Preemergence, Rate 250 g/ha): 10
Crabgrass plant response rating (crabgrass; [6]): 10
Plant response rating, Crabgrass (crabgrass; [7]): 6
Cocklebur plant response rating (cocklebur; [1]): 0
Cocklebur plant response rating (cocklebur; [2]): 2
Plant response rating, Cocklebur (cocklebur; [3]): 2
Plant response rating, Cocklebur (cocklebur; [4]): 0
Cocklebur plant response rating (cocklebur; [5]): 0
Cocklebur plant response rating (0 to 10 scale) (cocklebur; Preemergence, Rate 250 g/ha): 0
Cocklebur plant response rating (cocklebur; [6]): 0
Plant response rating, Cocklebur (cocklebur; [7]): 2
Wheat plant response rating (wheat; [1]): 0
Wheat plant response rating (wheat; [2]): 0
Plant response rating, Wheat (wheat; [3]): 2
Plant response rating, Wheat (wheat; [4]): 0
Wheat plant response rating (wheat; [5]): 0
Wheat plant response rating (0 to 10 scale) (wheat; Preemergence, Rate 250 g/ha): 0
Wheat plant response rating (wheat; [6]): 4
Plant response rating, Wheat (wheat; [7]): 0
